“And” between values parts separate entries of the source, which are not always exact repeats. Equal entries are not always repeated. Inconclusive results and toxic doses are left out. Rule as the data show it: active = T/C of 150% or more; inactive = T/C below 125%.
Tested on: L1210 leukemia ip in BDF1 mice, survival T/C
Experiment: NCI In Vivo Anticancer Drug Screen. Data for tumor model L1210 Leukemia (intraperitoneal) in B6D2F1 (BDF1) mice
Conditions: endpoint: mean survival time, higher = longer survival
Method in brief: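 Ratio derived from survival: compound-dosed mice over vehicle-dosed mice, all bearing a transplantable tumor.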

[1] = dose: 50.0 mg/kg/injection, schedule: Q01DX001 (ip), vehicle: saline
[2] = dose: 100.0 mg/kg/injection, schedule: Q01DX001 (ip), vehicle: saline
[3] = dose: 200.0 mg/kg/injection, schedule: Q01DX001 (ip), vehicle: saline
[4] = dose: 400.0 mg/kg/injection, schedule: Q01DX001 (ip), vehicle: saline
[5] = dose: 100.0 mg/kg/injection, schedule: Q01DX009 (ip), vehicle: saline with Tween-80
[6] = dose: 200.0 mg/kg/injection, schedule: Q01DX009 (ip), vehicle: saline with Tween-80
[7] = dose: 100.0 mg/kg/injection, schedule: Q01DX009 (ip), vehicle: Klucel (hydroxypropylcellulose) (HPC)
[8] = dose: 200.0 mg/kg/injection, schedule: Q01DX009 (ip), vehicle: Klucel (hydroxypropylcellulose) (HPC)
[9] = dose: 400.0 mg/kg/injection, schedule: Q01DX009 (ip), vehicle: Klucel (hydroxypropylcellulose) (HPC)
[10] = dose: 100.0 mg/kg/injection, schedule: Q04DX003 (ip), vehicle: saline
[11] = dose: 200.0 mg/kg/injection, schedule: Q04DX003 (ip), vehicle: saline

Measured: T/C

C/C(=N\Nc1ccccc1)C(C)C
inactive: dose: 75.0 mg/kg/injection, schedule: Q04DX003 (ip), vehicle: Klucel (hydroxypropylcellulose) (HPC) 118 % of control | dose: 150.0 mg/kg/injection, schedule: Q04DX003 (ip), vehicle: Klucel (hydroxypropylcellulose) (HPC) 94 % of control | dose: 300.0 mg/kg/injection, schedule: Q04DX003 (ip), vehicle: Klucel (hydroxypropylcellulose) (HPC) 96 % of control

COCC1CCCCC1O (configuration not stated)
inactive: [1] 101 % of control | [2] 95 % of control | [3] 101 % of control | [4] 98 % of control

Cc1ccc(S(=N)(=O)C2CC2)cc1 (configuration not stated)
inactive: [2] 95 % of control | [3] 93 % of control | [4] 103 % of control

CCOC(=O)Cn1c(C(F)(F)F)nc2nc(Cl)c(Cl)nc21
inactive: dose: 50.0 mg/kg/injection, schedule: Q01DX009 (ip), vehicle: saline with Tween-80 97 % of control | [5] 108 % of control | [6] 97 % of control

COc1cc(O)c2ncccc2c1O
inactive: dose: 5.0 mg/kg/injection, schedule: Q01DX001 (ip), vehicle: saline 95 % of control | dose: 10.0 mg/kg/injection, schedule: Q01DX001 (ip), vehicle: saline 101 % of control | dose: 20.0 mg/kg/injection, schedule: Q01DX001 (ip), vehicle: saline 106 % of control | dose: 35.0 mg/kg/injection, schedule: Q01DX001 (ip), vehicle: saline 86 % of control and 91 % of control | dose: 40.0 mg/kg/injection, schedule: Q01DX001 (ip), vehicle: saline 103 % of control | [1] 93 % of control and 89 % of control

O=C(NCCNC(=O)C(Cl)(Cl)Cl)C(Cl)(Cl)Cl
inactive: [7] 89 % of control | [8] 91 % of control | [9] 87 % of control

CC(=O)O[C@]1(C(C)=O)CC[C@H]2[C@@H]3CCC4=CC(=O)[C@H](C)C[C@]4(C)[C@@]3(F)[C@@H](O)C[C@@]21C
inactive: dose: 25.0 mg/kg/injection, schedule: Q01DX015 (sc), vehicle: steriod suspending solution 100 % of control | dose: 50.0 mg/kg/injection, schedule: Q01DX015 (sc), vehicle: steriod suspending solution 104 % of control | dose: 100.0 mg/kg/injection, schedule: Q01DX015 (sc), vehicle: steriod suspending solution 100 % of control | dose: 200.0 mg/kg/injection, schedule: Q01DX015 (sc), vehicle: steriod suspending solution 104 % of control and 115 % of control | dose: 400.0 mg/kg/injection, schedule: Q01DX015 (sc), vehicle: steriod suspending solution 109 % of control | dose: 800.0 mg/kg/injection, schedule: Q01DX015 (sc), vehicle: steriod suspending solution 110 % of control

O=CN(N=O)c1ccccc1
inactive: dose: 75.0 mg/kg/injection, schedule: Q01DX001 (ip), vehicle: other 104 % of control | dose: 150.0 mg/kg/injection, schedule: Q01DX001 (ip), vehicle: other 97 % of control | dose: 300.0 mg/kg/injection, schedule: Q01DX001 (ip), vehicle: other 96 % of control and 104 % of control

O=c1cc(C[n+]2ccccc2)[nH]c(=O)[nH]1
inactive: [10] 89 % of control | [11] 89 % of control

O=C(O)COc1ccccc1-c1ccccc1Cl
inactive: dose: 100.0 mg/kg/injection, schedule: Q04DX003 (ip), vehicle: Klucel (hydroxypropylcellulose) (HPC) 98 % of control | dose: 200.0 mg/kg/injection, schedule: Q04DX003 (ip), vehicle: Klucel (hydroxypropylcellulose) (HPC) 90 % of control

Cc1cc(Cl)ccc1NC(=O)Nc1c(Oc2ccc(Cl)cc2)ccc(Cl)c1S(=O)(=O)O
inactive: dose: 50.0 mg/kg/injection, schedule: Q01DX009 (ip), vehicle: saline 104 % of control | dose: 50.0 mg/kg/injection, schedule: Q04DX003 (ip), vehicle: saline 95 % of control | dose: 100.0 mg/kg/injection, schedule: Q01DX009 (ip), vehicle: saline 104 % of control | [10] 97 % of control | dose: 200.0 mg/kg/injection, schedule: Q01DX009 (ip), vehicle: saline 100 % of control | [11] 103 % of control

C/C=C/C=C/COC(=O)C(C)(C)C
inactive: dose: 50.0 mg/kg/injection, schedule: Q04DX002 (ip), vehicle: saline 103 % of control | dose: 100.0 mg/kg/injection, schedule: Q04DX002 (ip), vehicle: saline 95 % of control and 96 % of control | dose: 200.0 mg/kg/injection, schedule: Q04DX002 (ip), vehicle: saline 98 % of control | dose: 400.0 mg/kg/injection, schedule: Q04DX002 (ip), vehicle: saline 96 % of control and 107 % of control

CCNc1nc(NCC)c(Cl)c(C(Cl)(Cl)Cl)n1
inactive: dose: 50.0 mg/kg/injection, schedule: Q01DX009 (ip), vehicle: Klucel (hydroxypropylcellulose) (HPC) 102 % of control | [7] 102 % of control | [8] 105 % of control

CN1CCC(O)(C#N)CC1
inactive: dose: 7.5 mg/kg/injection, schedule: Q01DX001 (ip), vehicle: saline 101 % of control | dose: 15.0 mg/kg/injection, schedule: Q01DX001 (ip), vehicle: saline 106 % of control

CCCC(=O)Nc1ccn(C2OC(COC(=O)CCC)C(OC(=O)CCC)C2OC(=O)CCC)c(=O)n1 (configuration not stated)
inactive: dose: 177.0 mg/kg/injection, schedule: Q01DX001 (ip), vehicle: carboxymethylcellulose (CMC) 101 % of control | dose: 266.0 mg/kg/injection, schedule: Q01DX001 (ip), vehicle: carboxymethylcellulose (CMC) 116 % of control | dose: 400.0 mg/kg/injection, schedule: Q01DX001 (ip), vehicle: carboxymethylcellulose (CMC) 117 % of control

NC(N)=N/N=C/c1ccc([N+](=O)[O-])cc1
inactive: dose: 15.0 mg/kg/injection, schedule: Q01DX Z (ip), vehicle: saline 95 % of control | dose: 30.0 mg/kg/injection, schedule: Q01DX Z (ip), vehicle: saline 95 % of control | dose: 30.0 mg/kg/injection, schedule: Q01DX Z (oral), vehicle: other 104 % of control | dose: 60.0 mg/kg/injection, schedule: Q01DX Z (ip), vehicle: saline 90 % of control | dose: 60.0 mg/kg/injection, schedule: Q01DX Z (oral), vehicle: other 100 % of control | dose: 120.0 mg/kg/injection, schedule: Q01DX Z (oral), vehicle: other 88 % of control

Cc1cc(NC(=O)/C=C/c2ccc([N+](=O)[O-])cc2Cl)ccc1S(=O)(=O)F
inactive: dose: 100.0 mg/kg/injection, schedule: Q01DX001 (ip), vehicle: saline with Tween-80 92 % of control | dose: 200.0 mg/kg/injection, schedule: Q01DX001 (ip), vehicle: saline with Tween-80 93 % of control | dose: 400.0 mg/kg/injection, schedule: Q01DX001 (ip), vehicle: saline with Tween-80 92 % of control

CC(C(=O)NN)C(C)(C)O (configuration not stated)
inactive: dose: 100.0 mg/kg/injection, schedule: Q04DX002 (ip), vehicle: Klucel (hydroxypropylcellulose) (HPC) 97 % of control | dose: 200.0 mg/kg/injection, schedule: Q04DX002 (ip), vehicle: Klucel (hydroxypropylcellulose) (HPC) 94 % of control | dose: 400.0 mg/kg/injection, schedule: Q04DX002 (ip), vehicle: Klucel (hydroxypropylcellulose) (HPC) 101 % of control

O=C1C2C3CCC(O3)C2C(=O)N1CCOS(=O)(=O)c1ccc(Cl)cc1 (configuration not stated)
inactive: dose: 75.0 mg/kg/injection, schedule: Q01DX009 (ip), vehicle: carboxymethylcellulose (CMC) 93 % of control | dose: 100.0 mg/kg/injection, schedule: Q04DX003 (ip), vehicle: carboxymethylcellulose (CMC) 100 % of control | dose: 150.0 mg/kg/injection, schedule: Q01DX009 (ip), vehicle: carboxymethylcellulose (CMC) 94 % of control | dose: 200.0 mg/kg/injection, schedule: Q04DX003 (ip), vehicle: carboxymethylcellulose (CMC) 102 % of control | dose: 300.0 mg/kg/injection, schedule: Q01DX009 (ip), vehicle: carboxymethylcellulose (CMC) 91 % of control | dose: 400.0 mg/kg/injection, schedule: Q04DX003 (ip), vehicle: carboxymethylcellulose (CMC) 96 % of control

O=c1c(Cl)c(C(Cl)(Cl)Cl)[nH]c2c(Cl)cc(Cl)cc12
inactive: dose: 6.25 mg/kg/injection, schedule: Q01DX009 (ip), vehicle: other 93 % of control | dose: 12.5 mg/kg/injection, schedule: Q01DX009 (ip), vehicle: other 107 % of control

CC1(C#N)c2ccccc2C=CN1C(=O)c1ccccc1 (configuration not stated)
inactive: [7] 97 % of control | [8] 95 % of control | [9] 92 % of control

COc1ccc(CCOS(=O)(=O)c2ccc(C)cc2)cc1
inactive: [5] 100 % of control | [6] 97 % of control | dose: 400.0 mg/kg/injection, schedule: Q01DX009 (ip), vehicle: saline with Tween-80 100 % of control

CCCCCCC[CH2][Sn]1([CH2]CCCCCCC)[O]OC(c2ccccc2)[O]1 (configuration not stated)
inactive: dose: 6.25 mg/kg/injection, schedule: Q04DX002 (ip), vehicle: saline with Tween-80 102 % of control | dose: 12.5 mg/kg/injection, schedule: Q04DX002 (ip), vehicle: saline with Tween-80 98 % of control | dose: 25.0 mg/kg/injection, schedule: Q04DX002 (ip), vehicle: saline with Tween-80 91 % of control
